Results as given in ChEMBL document CHEMBL6134800, “Applications of innovative synthetic strategies in anticancer drug discovery: The driving force of new chemical reactions” (Bioorg Med Chem Lett, 2025).
In brackets after ≈: the same amount, converted by molar mass.

Columns and labels:
SMMC-7721 = test: Antiproliferative activity against human SMMC-7721 cells by CCK8 assay; assay type: functional, cell-based
QGY-7703 = test: Antiproliferative activity against human QGY-7703 cells by CCK8 assay; assay type: functional, cell-based
L02 = test: Antiproliferative activity against human L02 cells by CCK8 assay; assay type: functional, cell-based
Candida albicans = test: Antifungal activity against Candida albicans MTCC 3020 assessed as reduction in fungal growth; assay type: functional
HCT-116 [1] = test: Antiproliferative activity against human HCT-116 cells assessed as inhibition of cell growth at 20 uM incubated for 48 hrs by MTT assay relative to control; assay type: functional
A549 = test: Antiproliferative activity against human A549 cells assessed as inhibition of cell growth at 20 uM incubated for 48 hrs by MTT assay relative to control; assay type: functional
MDA-MB-231 [2] = test: Antiproliferative activity against human MDA-MB-231 cells assessed as reduction in cell viability incubated for 72 hrs by Celltiter-Glo reagent based assay; assay type: functional; settings: MDA-MB-231, 72 h
HepG2 [3] = test: Antiproliferative activity against human HepG2 cells assessed as reduction in cell viability incubated for 72 hrs by Celltiter-Glo reagent based assay; assay type: functional; settings: HepG2, 72 h
U-87 MG = test: Antiproliferative activity against human U-87 MG cells assessed as reduction in cell viability by MTT assay; assay type: functional, cell-based, U-87MG ATCC
HeLa [4] = test: Anticancer activity against human HeLa cells assessed as reduction in cell growth; assay type: functional, cell-based
4T1 = test: Anticancer activity against mouse 4T1 cells assessed as reduction in cell growth; assay type: functional, cell-based
[5] = system: Mycobacterium tuberculosis; test: Antimycobacterial activity against Mycobacterium tuberculosis H37Rv assessed as bacterial growth inhibition by microplate Alamar blue assay; assay type: functional
CAL-27 = test: Antiproliferative activity against human CAL-27 cells assessed as reduction in cell viability incubated for 24 hrs by MTT assay; assay type: functional, cell-based; settings: CAL-27, 24 h
MCF7 [6] = test: Antiproliferative activity against human MCF7 cells assessed as reduction in cell growth; assay type: functional, cell-based
HCC1806 = test: Antiproliferative activity against human HCC1806 cells assessed as inhibition of cell growth at 30 uM relative to control; assay type: functional
HeLa [7] = test: Antiproliferative activity against human Hela cells by MTT assay; assay type: functional, cell-based
MCF7 [8] = test: Antiproliferative activity against human MCF7 cells assessed as reduction in cell viability incubated for 72 hrs by MTT assay; assay type: functional, cell-based; settings: MCF7, 72 h
K562 = test: Antiproliferative activity against human K562 cells assessed as reduction in cell viability incubated for 72 hrs by Celltiter-Glo reagent based assay; assay type: functional; settings: K562, 72 h
Jurkat = test: Antiproliferative activity against human Jurkat cells assessed as reduction in cell viability incubated for 72 hrs by Celltiter-Glo reagent based assay; assay type: functional
HeLa [9] = test: Antiproliferative activity against human HeLa cells; assay type: functional, cell-based
[10] = molecular target: Lysine-specific demethylase 5C (Homo sapiens, UniProt P41229); test: Inhibition of KDM5C (unknown origin)
HepG2 [11] = test: Cytotoxicity against human HepG2 cells assessed as reduction in cell viability incubated for 24 hrs by CCK-8 assay; assay type: functional, cell-based; settings: HepG2, 24 h
HeLa [12] = test: Antiproliferative activity against human HeLa cells assessed as reduction in cell viability by MTT assay; assay type: functional, cell-based
MDA-MB-231 [13] = test: Antiproliferative activity against human MDA-MB-231 cells by CCK8 assay; assay type: functional, cell-based
[14] = molecular target: Indoleamine 2,3-dioxygenase 1 (Homo sapiens, UniProt P14902); test: Inhibition of N-terminal His-tagged human IDO1 extracted from Escherichia coli
K562/Adr [15] = test: Reversal of multidrug resistance in human K562/Adr cells assessed as reversal fold by measuring ratio of adriamycin IC50 to adriamycin IC50 in presence of test compound at 10 uM; assay type: functional
MDA-MB-231 [16] = test: Cytotoxicity against human MDA-MB-231 cells assessed as reduction in cell viability incubated for 24 hrs by CCK-8 assay; assay type: functional, cell-based; settings: MDA-MB-231, 24 h
KBv200 = test: Cytotoxicity against human KBv200 cells assessed as reduction in cell viability incubated for 72 hrs by SRB assay; assay type: functional, cell-based; settings: KBv200, 72 h
K562/Adr [17] = test: Antiproliferative activity against human K562/Adr cells assessed as reduction in cell growth incubated for 72 hrs by MTT assay; assay type: functional, cell-based
HCT-116 [18] = test: Antiproliferative activity against human HCT-116 cells by MTT assay; assay type: functional, cell-based

Sequence of Indoleamine 2,3-dioxygenase 1 (P14902 whole entry): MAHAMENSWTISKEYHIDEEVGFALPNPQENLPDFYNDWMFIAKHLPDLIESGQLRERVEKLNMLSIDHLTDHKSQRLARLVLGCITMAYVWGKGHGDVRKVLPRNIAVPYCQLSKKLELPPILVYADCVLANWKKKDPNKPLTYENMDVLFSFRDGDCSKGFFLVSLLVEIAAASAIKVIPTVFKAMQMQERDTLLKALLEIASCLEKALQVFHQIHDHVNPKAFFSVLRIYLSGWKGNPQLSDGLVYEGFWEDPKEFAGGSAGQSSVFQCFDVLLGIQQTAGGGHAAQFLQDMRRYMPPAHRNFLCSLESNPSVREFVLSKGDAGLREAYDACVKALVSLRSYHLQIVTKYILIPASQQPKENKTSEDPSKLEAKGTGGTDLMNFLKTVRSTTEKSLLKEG
Sequence of Lysine-specific demethylase 5C (P41229 whole entry): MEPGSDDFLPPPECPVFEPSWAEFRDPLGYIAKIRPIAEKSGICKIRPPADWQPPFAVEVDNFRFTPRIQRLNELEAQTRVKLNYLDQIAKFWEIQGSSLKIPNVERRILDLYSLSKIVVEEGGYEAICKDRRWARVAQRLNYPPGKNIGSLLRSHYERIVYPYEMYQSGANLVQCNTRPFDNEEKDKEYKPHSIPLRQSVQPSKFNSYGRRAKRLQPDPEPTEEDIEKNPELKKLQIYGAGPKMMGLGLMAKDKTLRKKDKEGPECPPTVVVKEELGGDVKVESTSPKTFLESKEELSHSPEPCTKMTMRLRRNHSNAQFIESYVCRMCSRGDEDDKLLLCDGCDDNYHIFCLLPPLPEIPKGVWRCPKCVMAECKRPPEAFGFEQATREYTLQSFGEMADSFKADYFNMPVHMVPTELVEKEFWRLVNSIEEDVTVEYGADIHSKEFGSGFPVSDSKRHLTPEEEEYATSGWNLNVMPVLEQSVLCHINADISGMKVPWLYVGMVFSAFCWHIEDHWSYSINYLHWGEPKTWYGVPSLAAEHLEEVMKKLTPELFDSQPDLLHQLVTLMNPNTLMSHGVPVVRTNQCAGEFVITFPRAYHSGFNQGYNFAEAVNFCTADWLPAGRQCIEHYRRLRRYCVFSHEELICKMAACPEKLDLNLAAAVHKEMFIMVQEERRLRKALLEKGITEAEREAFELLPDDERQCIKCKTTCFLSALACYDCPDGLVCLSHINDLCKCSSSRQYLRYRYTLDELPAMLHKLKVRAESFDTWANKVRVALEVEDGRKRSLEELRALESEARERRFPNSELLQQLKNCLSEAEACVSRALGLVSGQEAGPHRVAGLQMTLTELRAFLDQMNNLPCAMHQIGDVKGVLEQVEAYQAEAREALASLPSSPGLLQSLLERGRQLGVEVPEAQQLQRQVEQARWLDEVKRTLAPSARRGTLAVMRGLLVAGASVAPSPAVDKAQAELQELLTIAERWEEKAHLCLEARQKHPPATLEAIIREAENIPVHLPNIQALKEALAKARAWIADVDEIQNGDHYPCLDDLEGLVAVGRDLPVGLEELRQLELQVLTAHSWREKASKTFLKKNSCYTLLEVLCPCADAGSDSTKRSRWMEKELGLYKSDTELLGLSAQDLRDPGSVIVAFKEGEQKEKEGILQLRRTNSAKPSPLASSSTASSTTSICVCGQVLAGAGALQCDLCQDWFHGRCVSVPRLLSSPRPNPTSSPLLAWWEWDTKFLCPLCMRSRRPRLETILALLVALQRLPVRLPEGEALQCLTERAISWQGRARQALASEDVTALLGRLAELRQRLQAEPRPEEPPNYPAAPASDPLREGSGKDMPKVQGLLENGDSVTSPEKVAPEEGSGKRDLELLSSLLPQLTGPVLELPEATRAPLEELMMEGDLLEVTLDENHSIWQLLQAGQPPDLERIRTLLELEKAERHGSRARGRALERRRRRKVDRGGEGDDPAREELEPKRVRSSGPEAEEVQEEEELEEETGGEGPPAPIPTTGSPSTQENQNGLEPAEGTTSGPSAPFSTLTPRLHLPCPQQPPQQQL

COC(=O)[C@]1(C)CC[C@]2(C)CC[C@]3(C)C4=CC=C5C(=CC(=O)C(OC(=O)CCCc6cn(CCCO[C@@H]7O[C@H](CO)[C@@H](O)[C@H](O)[C@H]7O)nn6)=C5C)[C@]4(C)CC[C@@]3(C)[C@@H]2C1
IC50 (SMMC-7721): 2780 nM
IC50 (QGY-7703): 5.56 µM
IC50 (L02): 4.61 µM

CC12CCCCN1c1ccc(Br)cc1C(=O)O2 (stereo not drawn)
MIC (Candida albicans): 12.5 µg/mL (≈ 42.2 µM)

COc1ccc(-c2c(-c3cc(OC)c(OC)c(OC)c3)cc(-c3cc(OC)c(OC)c(OC)c3)oc2=O)cc1OC
inhibition at 20 µM (HCT-116 [1]): 89.4%
inhibition at 20 µM (A549): 82.9%

COc1ccc(-c2c(C3(O)C=CC(=O)C=C3)[nH]c(=O)c3c2c2ccccc2n3Cc2ccccc2)cc1
IC50 (MDA-MB-231 [2]): 660 nM
IC50 (HepG2 [3]): 1390 nM

COC(=O)[C@@H](NC(=O)[C@H](CC(C)C)NC(=O)[C@H](Cc1ccccc1C1=CC(=O)C=CC1=O)NC(=O)[C@@H](NC(=O)OC(C)(C)C)C(C)(C)C)C(C)C
IC50 (U-87 MG): 32 µM

Cc1ccc2c(c1)C(=O)OC1(C)CCCCN21 (stereo not drawn)
IC50 (HeLa [4]): 25.1 µg/mL (≈ 109 µM)
IC50 (4T1): 10.1 µg/mL (≈ 43.8 µM)

CCOC(=O)C1=C(Nc2ccc(Cl)cc2)C[C@H](c2ccc(OC)cc2)N(c2ccc(Cl)cc2)[C@H]1c1ccc(OC)cc1
MIC [5]: 12.5 µg/mL

O=c1[nH]c(/C=C2/C(c3ccccc3)=C(c3ccccc3)c3cc(C(F)(F)F)ccc32)nc2ccccc12
IC50 (CAL-27): 9.41 µM

CCOC(=O)C1=C(Nc2ccc(OC)cc2)C[C@H](c2ccc(Cl)cc2)N(c2ccc(OC)cc2)[C@H]1c1ccc(Cl)cc1
IC50 (MCF7 [6]): 34.2 µg/mL (≈ 56.6 µM)

CC[C@H](C)[C@@H]1NC(=O)[C@H](Cc2ccccc2)NC(=O)CC[C@@H](C(=O)OC)NC(=O)COC(=O)/C=C/c2cccc3c(c[nH]c23)C[C@@H](C(=O)OCc2ccccc2)NC1=O
inhibition at 30 µM (HCC1806): 99%

O=C(Nc1cccc2cccnc12)c1ccccc1-c1ccc2c(c1)c1ccccc1n2-c1ccccc1
IC50 (HeLa [7]): 37.1 µM

Cc1ccccc1C(c1c[nH]c2ccccc12)c1c[nH]c2ccccc12
IC50 (MCF7 [8]): 5.69 µM

O=C1C=CC2(O)c3c(nc4c(c3-c3ccccc3)c3ccccc3n4Cc3ccccc3)OC2C1 (stereo not drawn)
IC50 (K562): 2100 nM
IC50 (Jurkat): 900 nM

Cc1ccccc1NC1(C(F)(F)F)Cc2ccccc2C(=O)N1CCO (stereo not drawn)
IC50 (HeLa [9]): 1130 nM

CCCCCCN(C)CCn1cc(-c2cccc(C(=O)O)c2)nn1
IC50 [10]: 3.01 µM

FC(F)(F)C1(Nc2ccccc2)Cc2ccsc2-c2nc3ccccc3n21 (stereo not drawn)
IC50 (HepG2 [11]): 9.6 µM

COC(=O)[C@H](CC(C)C)NC(=O)[C@H](Cc1ccccc1C1=CC(=O)C=CC1=O)NC(=O)[C@@H](NC(=O)OC(C)(C)C)C(C)(C)C
IC50 (HeLa [12]): 40 µM

O=C1NC(/C=C2/C(c3ccccc3)=C(c3ccccc3)c3ccccc32)=NC2c3ccccc3OC12 (stereo not drawn)
IC50 (CAL-27): 8.79 µM

C[Si](C)(C)c1ccc(C(c2c[nH]c3ccccc23)c2c[nH]c3ccccc23)cc1
IC50 (MCF7 [8]): 6.71 µM

COC(=O)[C@]1(C)CC[C@]2(C)CC[C@]3(C)C4=CC=C5C(=CC(=O)C(O)=C5C)[C@]4(C)CC[C@@]3(C)[C@@H]2C1 [PRISTIMERIN]
IC50 (MDA-MB-231 [13]): 1010 nM
IC50 (SMMC-7721): 1970 nM
IC50 (QGY-7703): 2.34 µM
IC50 (L02): 3.6 µM

O=C1c2ccccc2-n2c1c(-c1ccc(Cl)cc1Br)c(S(=O)(=O)c1ccccc1)c2-c1ccccc1
IC50 [14]: 82.3 nM

CCOc1cc(CC(=O)N[C@@H](CC(C)C)c2ccccc2N2CCCCC2)cc2c1C(=O)N[C@@H](C)C(=O)N[C@@H](C(C)C)C(=O)OC/C(c1ccccc1)=C\C2
fold change (FC) (K562/Adr [15]): 176.3

Cc1cccc2c1C(=O)N1CCN(c3ccccc3)C1(C(F)(F)F)C2 (stereo not drawn)
IC50 (HeLa [9]): 1430 nM

COC(=O)[C@@H]1Cc2c[nH]c3c(cccc23)/C=C/C(=O)OCCCC(=O)N[C@@H](CC(C)C)C(=O)N2CCC[C@H]2C(=O)N[C@@H](Cc2ccccc2)C(=O)N1
inhibition at 30 µM (HCC1806): 97%

COc1ccc2c(c1)CC(Nc1ccccc1)(C(F)(F)F)n1c-2nc2ccccc21 (stereo not drawn)
IC50 (MDA-MB-231 [16]): 1300 nM

CCC1=C[C@@H]2CN(C1)Cc1c([nH]c3ccccc13)[C@@](C(=O)OC)(c1cc3c(cc1OC)N(C)[C@H]1[C@@](O)(C(=O)OC)[C@H](OC(C)=O)[C@]4(CC)C=CCN5CC[C@]31[C@@H]54)C2 [VINORELBINE]
IC50 (KBv200): 434 nM
IC50 (K562/Adr [17]): 558 nM

CCOc1cccc(-c2ccc3c(c2)c2ccccc2n3C)c1C(=O)Nc1cccc2cccnc12
IC50 (HeLa [7]): 9.6 µM
IC50 (HCT-116 [18]): 15.2 µM
